In US20100190724A1, “USE OF MELANOCYTE-STIMULATING HORMONE RELEASE-INHIBITING FACTOR AS A THERAPEUTIC AGENT IN THE TREATMENT OF PSEUDOMONAS AERUGINOSA INFECTION” (priority 2007, published 2010):
Where a SMILES comes first, the peptide text is derived from it.

Tested on: drug-resistant Mycobacterium tuberculosis
Settings: peptide 10 micrograms per ml, seven days

CC(C)C[C@H](NC(=O)[C@@H]1CCCN1)C(=O)NCC(N)=O [MSHRIF, Pro-Leu-Gly-NH2] (H-Pro-Leu-Gly-NH2)
% inhibition: 0.0%
